Activity calls are given as the source filed them. The calls are words filed in the database; no cut-off is given here.
Legend:
[1] = molecular target: T1, Amine oxidase [flavin-containing] B (Homo sapiens, UniProt P27338); test: Inhibition of human recombinant MAO-B
T1 sequence (P27338 whole entry): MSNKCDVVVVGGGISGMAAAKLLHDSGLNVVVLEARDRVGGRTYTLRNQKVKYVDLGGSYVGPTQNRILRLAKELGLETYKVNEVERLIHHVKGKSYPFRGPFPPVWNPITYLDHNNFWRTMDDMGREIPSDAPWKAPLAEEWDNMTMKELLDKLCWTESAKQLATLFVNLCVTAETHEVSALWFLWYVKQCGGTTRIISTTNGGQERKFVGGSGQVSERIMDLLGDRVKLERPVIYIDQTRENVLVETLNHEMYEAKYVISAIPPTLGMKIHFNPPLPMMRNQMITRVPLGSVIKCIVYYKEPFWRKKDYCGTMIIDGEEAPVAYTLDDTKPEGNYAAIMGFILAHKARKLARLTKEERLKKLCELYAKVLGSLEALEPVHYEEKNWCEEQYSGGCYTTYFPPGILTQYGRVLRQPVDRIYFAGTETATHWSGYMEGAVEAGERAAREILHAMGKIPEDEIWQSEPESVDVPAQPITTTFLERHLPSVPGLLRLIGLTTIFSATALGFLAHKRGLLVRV

[2] = molecular target: T2, Amine oxidase [flavin-containing] A (Homo sapiens, UniProt P21397); test: Inhibition of human recombinant MAO-A
T2 sequence (P21397 whole entry): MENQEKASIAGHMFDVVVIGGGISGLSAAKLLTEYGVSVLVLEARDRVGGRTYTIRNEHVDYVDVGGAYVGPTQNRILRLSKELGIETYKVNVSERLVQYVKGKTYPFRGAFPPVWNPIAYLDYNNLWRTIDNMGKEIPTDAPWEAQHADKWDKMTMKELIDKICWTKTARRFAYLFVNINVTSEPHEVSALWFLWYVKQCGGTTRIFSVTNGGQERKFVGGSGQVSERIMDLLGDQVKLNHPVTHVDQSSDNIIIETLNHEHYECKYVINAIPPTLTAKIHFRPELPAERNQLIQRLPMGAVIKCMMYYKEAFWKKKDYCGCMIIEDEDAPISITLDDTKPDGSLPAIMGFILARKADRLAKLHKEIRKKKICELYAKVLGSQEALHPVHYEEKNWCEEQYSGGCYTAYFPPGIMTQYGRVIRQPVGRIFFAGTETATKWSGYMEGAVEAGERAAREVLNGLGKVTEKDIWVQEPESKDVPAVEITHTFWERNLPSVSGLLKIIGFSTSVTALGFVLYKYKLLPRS

[3] = molecular target: recombinant human DAO (diamine oxidase) (Homo sapiens, UniProt P19801); test: Inhibition of human recombinant DAO
Mus musculus [4] = test: Antiinflammatory activity against mouse air pouch model of carrageenan-induced oedema assessed as reduction in total inflammatory cell volume into air pouch at 0.6 to 6 mg/kg, po administered as single dose for 1 hr followed byb carrageenan administration; format: functional, organism-based; details: dose 0.6-6 mg/kg
[5] = molecular target: T3, Amine oxidase [flavin-containing] B (Mus musculus, UniProt Q8BW75); test: Inhibition of mouse muscle MAO-B; format: tissue-based, Muscle tissue
T3 sequence (Q8BW75 whole entry): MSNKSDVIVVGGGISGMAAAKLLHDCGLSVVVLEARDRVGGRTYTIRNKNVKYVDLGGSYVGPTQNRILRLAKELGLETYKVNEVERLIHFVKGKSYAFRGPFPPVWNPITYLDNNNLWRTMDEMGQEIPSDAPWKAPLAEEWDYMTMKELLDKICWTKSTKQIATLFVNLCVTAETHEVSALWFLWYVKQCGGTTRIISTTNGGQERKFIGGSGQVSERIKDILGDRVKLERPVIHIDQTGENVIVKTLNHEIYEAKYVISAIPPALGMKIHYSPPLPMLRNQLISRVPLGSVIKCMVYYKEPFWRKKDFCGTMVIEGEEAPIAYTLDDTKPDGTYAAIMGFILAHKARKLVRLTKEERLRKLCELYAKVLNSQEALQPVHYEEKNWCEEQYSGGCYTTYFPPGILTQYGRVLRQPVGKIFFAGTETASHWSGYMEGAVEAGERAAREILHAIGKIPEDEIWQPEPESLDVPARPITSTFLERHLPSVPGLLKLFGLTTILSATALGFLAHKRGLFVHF

Lysyl oxidase homolog 2 = molecular target: T4, Lysyl oxidase homolog 2 (Homo sapiens, UniProt Q9Y4K0); test: Inhibition of recombinant human LOXL-2
T4 sequence (Q9Y4K0 whole entry): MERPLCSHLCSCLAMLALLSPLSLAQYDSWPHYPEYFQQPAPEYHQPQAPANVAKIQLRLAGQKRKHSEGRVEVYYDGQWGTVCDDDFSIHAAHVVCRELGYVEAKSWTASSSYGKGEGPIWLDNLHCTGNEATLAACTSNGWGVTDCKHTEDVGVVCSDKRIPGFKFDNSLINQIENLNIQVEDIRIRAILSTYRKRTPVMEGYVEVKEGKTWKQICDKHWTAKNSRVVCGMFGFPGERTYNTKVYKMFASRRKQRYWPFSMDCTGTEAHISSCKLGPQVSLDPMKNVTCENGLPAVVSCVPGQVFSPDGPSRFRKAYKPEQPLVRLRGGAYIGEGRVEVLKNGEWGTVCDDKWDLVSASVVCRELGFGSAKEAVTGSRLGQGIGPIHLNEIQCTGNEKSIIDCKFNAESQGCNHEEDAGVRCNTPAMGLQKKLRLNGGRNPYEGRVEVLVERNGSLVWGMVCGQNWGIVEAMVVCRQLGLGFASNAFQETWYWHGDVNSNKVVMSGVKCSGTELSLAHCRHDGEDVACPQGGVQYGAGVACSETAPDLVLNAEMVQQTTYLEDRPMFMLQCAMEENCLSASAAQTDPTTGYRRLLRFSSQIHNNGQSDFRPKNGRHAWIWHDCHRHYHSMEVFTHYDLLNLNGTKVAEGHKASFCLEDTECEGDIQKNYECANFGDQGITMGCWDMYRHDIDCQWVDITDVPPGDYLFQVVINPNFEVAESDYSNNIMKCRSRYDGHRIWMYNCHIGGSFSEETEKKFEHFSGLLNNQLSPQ

Protein-lysine 6-oxidase = molecular target: T5, Protein-lysine 6-oxidase (Bos taurus, UniProt P33072); test: Inhibition of bovine aorta LOX; format: tissue-based
T5 sequence (P33072 whole entry): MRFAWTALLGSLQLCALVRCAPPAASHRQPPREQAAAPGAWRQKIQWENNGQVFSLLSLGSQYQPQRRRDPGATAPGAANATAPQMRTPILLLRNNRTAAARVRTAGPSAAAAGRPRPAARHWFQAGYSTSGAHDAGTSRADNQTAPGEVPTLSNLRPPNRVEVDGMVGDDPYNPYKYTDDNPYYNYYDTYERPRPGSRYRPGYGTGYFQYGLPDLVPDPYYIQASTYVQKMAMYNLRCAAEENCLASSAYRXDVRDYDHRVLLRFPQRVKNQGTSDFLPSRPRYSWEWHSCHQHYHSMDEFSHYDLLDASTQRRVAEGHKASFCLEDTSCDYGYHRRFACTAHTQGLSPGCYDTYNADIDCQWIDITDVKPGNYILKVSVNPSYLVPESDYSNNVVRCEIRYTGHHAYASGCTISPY

[6] = molecular target: Lysine-specific histone demethylase 1A (Homo sapiens, UniProt O60341); test: Inhibition of LSD1 (unknown origin)
[7] = Plasma protein binding in human; format: ADME, cell-free; details: read-out: PPB (converted)
[8] = Plasma protein binding in rat; format: ADME, cell-free; details: read-out: PPB (converted)
[9] = Plasma protein binding in dog; format: ADME, cell-free, Canis lupus familiaris; details: read-out: PPB (converted)
[10] = Stability in human microsomes measured after 1 hr; format: ADME, Microsome; details: read-out: Stability
[11] = Stability in rat microsomes measured after 1 hr; format: ADME, Microsome; details: read-out: Stability
[12] = Stability in dog microsomes measured after 1 hr; format: ADME, Canis lupus familiaris, Microsome; details: read-out: Stability
[13] = Stability in human hepatocytes assessed as parent compound remaining measured after 1 hr; format: ADME, cell-based, Hepatocyte; details: read-out: Stability
Cytochrome P450 1A2 = molecular target: T6, Cytochrome P450 1A2 (Homo sapiens, UniProt P05177); test: Inhibition of CYP1A2 (unknown origin); format: ADME
T6 sequence (P05177 whole entry): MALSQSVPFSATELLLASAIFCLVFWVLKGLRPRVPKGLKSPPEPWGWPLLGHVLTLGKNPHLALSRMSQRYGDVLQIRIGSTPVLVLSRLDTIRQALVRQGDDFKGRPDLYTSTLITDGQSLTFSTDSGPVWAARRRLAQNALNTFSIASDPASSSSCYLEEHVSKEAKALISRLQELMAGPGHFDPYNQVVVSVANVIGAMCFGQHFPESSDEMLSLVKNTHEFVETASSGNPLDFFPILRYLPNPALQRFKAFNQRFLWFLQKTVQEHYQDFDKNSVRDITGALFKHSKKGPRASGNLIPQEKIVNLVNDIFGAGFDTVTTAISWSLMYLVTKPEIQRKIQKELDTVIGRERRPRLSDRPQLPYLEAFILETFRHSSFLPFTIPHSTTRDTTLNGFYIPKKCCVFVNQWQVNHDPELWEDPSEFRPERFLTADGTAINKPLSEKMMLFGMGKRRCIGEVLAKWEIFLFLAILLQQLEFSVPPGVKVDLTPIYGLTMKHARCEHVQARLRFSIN

Cytochrome P450 2C9 = Cytochrome P450 2C9 (Homo sapiens, UniProt P11712); test: Inhibition of CYP2C9 (unknown origin); format: ADME
Chain of Cytochrome P450 2C9 (P11712 whole entry): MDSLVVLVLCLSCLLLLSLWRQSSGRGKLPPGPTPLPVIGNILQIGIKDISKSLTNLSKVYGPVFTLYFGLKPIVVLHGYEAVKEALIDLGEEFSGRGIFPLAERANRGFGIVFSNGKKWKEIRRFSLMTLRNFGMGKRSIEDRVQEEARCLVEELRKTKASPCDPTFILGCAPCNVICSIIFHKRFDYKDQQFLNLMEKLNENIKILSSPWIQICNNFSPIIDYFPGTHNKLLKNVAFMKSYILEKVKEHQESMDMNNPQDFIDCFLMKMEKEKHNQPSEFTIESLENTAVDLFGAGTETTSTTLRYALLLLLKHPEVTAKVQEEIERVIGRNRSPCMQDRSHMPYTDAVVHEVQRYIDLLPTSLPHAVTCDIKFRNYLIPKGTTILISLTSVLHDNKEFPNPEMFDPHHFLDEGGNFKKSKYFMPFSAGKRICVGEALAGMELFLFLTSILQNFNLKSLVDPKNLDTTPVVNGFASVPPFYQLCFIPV

Cytochrome P450 2C19 = Cytochrome P450 2C19 (Homo sapiens, UniProt P33261); test: Inhibition of CYP2C19 (unknown origin)
Chain of Cytochrome P450 2C19 (P33261 whole entry): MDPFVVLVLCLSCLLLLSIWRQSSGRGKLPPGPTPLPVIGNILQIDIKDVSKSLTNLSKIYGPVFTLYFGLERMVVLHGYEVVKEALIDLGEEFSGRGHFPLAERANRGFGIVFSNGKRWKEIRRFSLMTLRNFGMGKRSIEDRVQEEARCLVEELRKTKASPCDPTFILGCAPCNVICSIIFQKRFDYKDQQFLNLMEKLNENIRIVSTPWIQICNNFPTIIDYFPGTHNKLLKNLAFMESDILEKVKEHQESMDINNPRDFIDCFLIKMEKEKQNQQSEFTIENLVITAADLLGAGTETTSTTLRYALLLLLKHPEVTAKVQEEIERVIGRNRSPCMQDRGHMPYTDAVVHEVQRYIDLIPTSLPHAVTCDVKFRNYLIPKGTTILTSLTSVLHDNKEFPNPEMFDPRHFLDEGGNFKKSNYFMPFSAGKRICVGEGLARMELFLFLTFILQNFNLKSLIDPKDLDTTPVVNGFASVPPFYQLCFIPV

Cytochrome P450 2D6 = Cytochrome P450 2D6 (Homo sapiens, UniProt P10635); test: Inhibition of CYP2D6 (unknown origin); format: ADME
Chain of Cytochrome P450 2D6 (P10635 whole entry): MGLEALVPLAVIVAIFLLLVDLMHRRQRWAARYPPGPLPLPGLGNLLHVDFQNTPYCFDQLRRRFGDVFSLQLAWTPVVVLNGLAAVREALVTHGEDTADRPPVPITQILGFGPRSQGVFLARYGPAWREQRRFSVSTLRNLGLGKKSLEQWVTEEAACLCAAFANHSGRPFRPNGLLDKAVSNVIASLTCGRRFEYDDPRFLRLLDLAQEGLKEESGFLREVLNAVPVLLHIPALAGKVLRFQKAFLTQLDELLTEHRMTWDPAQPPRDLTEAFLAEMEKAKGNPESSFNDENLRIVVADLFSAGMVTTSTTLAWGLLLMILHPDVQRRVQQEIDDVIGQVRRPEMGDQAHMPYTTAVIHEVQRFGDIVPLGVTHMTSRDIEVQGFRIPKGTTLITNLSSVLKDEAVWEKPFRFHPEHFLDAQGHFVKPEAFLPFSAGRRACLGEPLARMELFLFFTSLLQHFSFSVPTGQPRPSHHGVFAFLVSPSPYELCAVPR

Cytochrome P450 3A4 = Cytochrome P450 3A4 (Homo sapiens, UniProt P08684); test: Inhibition of CYP3A4 (unknown origin); format: ADME
Chain of Cytochrome P450 3A4 (P08684 whole entry): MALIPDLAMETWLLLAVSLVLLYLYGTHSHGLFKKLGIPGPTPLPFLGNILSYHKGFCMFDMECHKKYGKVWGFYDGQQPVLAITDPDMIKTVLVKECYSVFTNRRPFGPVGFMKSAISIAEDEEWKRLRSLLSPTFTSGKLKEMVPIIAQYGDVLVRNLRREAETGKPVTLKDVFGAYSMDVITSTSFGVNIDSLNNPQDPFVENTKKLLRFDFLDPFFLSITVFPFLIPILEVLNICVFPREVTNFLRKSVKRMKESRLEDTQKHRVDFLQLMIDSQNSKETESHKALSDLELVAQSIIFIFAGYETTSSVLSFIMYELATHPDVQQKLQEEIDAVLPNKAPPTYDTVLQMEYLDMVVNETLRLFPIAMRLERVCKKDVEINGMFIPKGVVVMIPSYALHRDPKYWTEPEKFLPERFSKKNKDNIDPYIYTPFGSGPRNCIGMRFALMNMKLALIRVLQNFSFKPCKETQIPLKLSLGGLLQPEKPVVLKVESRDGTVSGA

[14] = Tmax in Wistar rat at 3 mg/kg, po; format: ADME, organism-based; details: in vivo
[15] = Cmax in Wistar rat at 3 mg/kg, po; format: ADME, organism-based; parameters: dose 3 mg/kg, route po; details: in vivo
[16] = AUC (0 to infinity) in Wistar rat at 3 mg/kg, po; format: ADME, organism-based; parameters: time infinity, dose 3 mg/kg, route po; details: in vivo
Rattus norvegicus [17] = test: In vivo inhibition of MOA-B in Wistar rat brain at 0.6 mg/kg, po administered as single dose and measured upto 48 hrs; format: functional, organism-based
Rattus norvegicus [18] = test: In vivo inhibition of SSAO in Wistar rat adipose tissue at 0.6 mg/kg, po administered as single dose and measured upto 48 hrs; format: functional, organism-based
Rattus norvegicus [19] = test: In vivo inhibition of MOA-A in Wistar rat brain at 3 mg/kg, po administered as single dose and measured upto 48 hrs; format: functional, organism-based
Mus musculus [20] = test: Antiinflammatory activity against mouse air pouch model of carrageenan-induced oedema assessed as reduction in neutrophil number in infiltrate at 0.6 mg/kg, po administered as single dose for 1 hr followed byb carrageenan administration; format: functional, organism-based
Mus musculus [21] = test: Antineuroinflammatory activity in PLP-induced autoimmune encephalomyelitis mouse model assessed as reduction in AUC of clinical score at 0.6 to 6 mg/kg/day, po administered once daily via oral gavage starting from day 13 post PLP sensibilization and measured on day 30; format: functional, organism-based; details: dose 0.6-6 mg/kg/day, time 17.0 day
[22] = Inhibition of calcium channel (unknown origin) at 10 uM; format: toxicity; details: human
[23] = Inhibition of sodium channel (unknown origin) at 10 uM; format: toxicity; details: human
[24] = Inhibition of potassium channel (unknown origin) at 10 uM; format: toxicity; details: human

Question: What does the source list for NC/C(=C/F)CCc1ccc(F)cc1 [MOFEGILINE]?
Answer: IC50 [1]: 0.002 µM; IC50 [2]: 0.75 µM; IC50 [3]: > 30 µM

Question: Which results are given for Cl.NC/C(=C\F)[C@H]1Cc2ccccc2O1?
Answer: Activity (Mus musculus [4]): Active; IC50 [2]: 2.4 µM; IC50 [3]: > 30 µM; IC50 [5]: 0.0004 µM; IC50 (Lysyl oxidase homolog 2): > 30 µM; IC50 (Protein-lysine 6-oxidase): > 30 µM; IC50 [6]: > 30 µM; fraction unbound [7]: 0.24; fraction unbound [8]: 0.51; fraction unbound [9]: 0.42; remaining at 1 h [10]: 84%; remaining at 1 h [11]: 67%; remaining at 1 h [12]: 92%; remaining at 1 h [13]: > 95%; IC50 (Cytochrome P450 1A2): > 10 µM; IC50 (Cytochrome P450 2C9): > 10 µM; IC50 (Cytochrome P450 2C19): > 10 µM; IC50 (Cytochrome P450 2D6): > 10 µM; IC50 (Cytochrome P450 3A4): > 10 µM; Tmax [14]: 20 min; Cmax [15]: 0.199 µg/mL; AUC(0-inf) [16]: 0.265 µg·h/mL; inhibition (Rattus norvegicus [17]): Active; inhibition (Rattus norvegicus [18]): Active; inhibition (Rattus norvegicus [19]): Active; Activity (Mus musculus [20]): Active; Activity (Mus musculus [21]): Active

Question: For NC/C(=C/F)[C@@H]1Cc2ccccc2O1, which IC50 [2] is on record?
Answer: 0.1 µM

Question: For NCC(=CF)COc1ccc(F)cc1 (mixture of isomers), which IC50 [1] is on record?
Answer: 0.004 µM

Question: What about the IC50 [2] of the same molecule?
Answer: 14 µM

Question: And the IC50 [3]?
Answer: 0.78 µM

Question: For Cl.NCC(=CF)C1Cc2ccccc2O1 (mixture of isomers), which IC50 [2] is on record?
Answer: 0.46 µM

Question: What about the IC50 [3] of the same molecule?
Answer: > 30 µM

Question: And the “inhibition (INH)” value [22]?
Answer: Active

Question: And the “inhibition (INH)” value [23]?
Answer: Active

Question: And the “inhibition (INH)” value [24]?
Answer: Active
